Assay results reported in patent US5563130A, “Methods for inhibiting angiogenesis, proliferation of endothelial or tumor cells and tumor growth” (American Cyanamid Company, priority 1994, dated 1996).

Experiments:
Assay type in all cases: cell-based
MIP = assay: Antiproliferative activity in human colon tumor cell line MIP; settings: PROTOCOL 1 and PROTOCOL 2
Protocol: (§1) PROTOCOL 1, 2, and 3 are described in greater detail hereinbelow. In general, according to PROTOCOLS 1 and 2, the target ABAE and/or Human Tumor cells are exposed to the compound of Formula I for 48 hours. PROTOCOL 3 exposes ABAE cell to the compound for 4 days. A detailed description of the protocol is as follows:
(§2) Antiproliferative Activity in Human Tumor and Adult Bovine Aortic Endothelial (ABAE) Cell Lines
(§3) The antiproliferative activity of the compounds of Formula I of the present invention is evaluated in a panel comprised of human tumor cell lines and an adult bovine aortic endothelial cell line (ABAE). The human tumor cell lines are from:
(§4) 2) Colon tumors: MIP, CaCo2, and SW620.
(§5) All cell lines are maintained in log phase in RPMI 1640 media, supplemented with 5% fetal calf serum, penicillin/streptomycin and 2 mM L-glutamine. Cultures are renewed after 20 passages with cells from a fresh stock of batch-frozen early passage cells. Cell lines are routinely checked for mycoplasma contamination (Genprobe). In a laminar flow hood, cells (1-5×10^4) are plated into 96-well microtiter plates in a volume of 0.1 ml/well with a bulk microtiter dispenser (Denley). […] At this concentration, dimethylsulfoxide has no effect on cell growth. Compounds are added using a Tomtec dispenser which simultaneously dispenses from one 96-well plate, containing the drug dilutions, to the plates containing the cells. After two days of continuous drug exposure, 50% cold trichloroacetic acid (TCA) is added to 10% final concentration to fix the cells, and after 60 minutes at 4° C., the TCA is aspirated and the plates are washed 5 times with deionized water using a microtiter plate washer. The number of cells on the plate are quantitated using a protein dye-binding assay (Monks et al., 1991). A 0.4% solution of the dye, sulforhodamine B, in glacial acetic acid is added to the plates, and the plates are washed 5 times with 1% glacial acetic acid using the automatic plate washed. The bound stain is solubilized with 0.1 ml of 10 mM Tris base. The optical densities are read from an automatic spectrophotometric plate reader (Dynatech) directly to a main frame computer (VAX 8600).
(§6) Positive controls, that include standard chemotherapeutic drugs (i.e., adriamycin, cisplatin, etc.), are included in every experiment.
(§7) Background optical density measurements (complete media-cells, and complete media+drug-cells) are automatically subtracted from the appropriate control and test wells. Mean values and standard errors are determined from duplicate wells. A measure is also made of the optical density at time when the drugs are added. The number of cells after treatment (P), as % of control, is calculated for every concentration of drug, as follows: [formula] wherein: T is optical density measurement for treated cells after 48 hours;
(§8) C is optical density measurement for untreated cells after 48 hours;
(§9) Co is optical density measurement for cells at the time of drug addition.
(§10) IC50 of growth inhibition is calculated from the sets of P values using the RS-1 data package (BBN Software).
(§11) The antiproliferative activity of the compounds of Formula I is evaluated in a panel comprised of human tumor cell lines and an adult bovine aortic endothelial cell line (ABAE) as listed in PROTOCOL 1. This assay is a modification of PROTOCOL 1. The modifications include:
(§12) 1) each concentration for each compound is tested in a single well;
(§13) 2) compounds are tested at 20, 4, 0.8, 0.16 microgram/ml and additionally in some experiments at 100 and 0.32 microgram/ml;
(§14) 3) samples are pipetted into a 96-well plate for each of the cell lines by a Beckman Biomek 1000 SL robot;
(§15) 4) after fixing with TCA each well is washed with 0.35 ml distilled water twice, not five times;
(§16) 5) after staining with sulforhodamine B each well is washed 3 times, not five times; […]

A2780/DDP = assay: Antiproliferative activity in human ovarian tumor cell line A2780/DDP; settings: PROTOCOL 1 and PROTOCOL 2
Protocol: as §1, §2, §3, §5, §6, §7, §8, §9, §10, §11, §12, §13, §14, §15, §16

Human Tumor Cell lines = assay: Antiproliferative activity in panel of human tumor cell lines
Protocol: as §1, §2, §3, §4, §5, §6, §7, §8, §9, §10, §11, §12, §13, §14, §15, §16

CACO2 = assay: Antiproliferative activity in human colon tumor cell line CACO2; settings: PROTOCOL 1 and PROTOCOL 2
Protocol: as §1, §2, §3, §4
All cell lines are maintained in log phase in RPMI 1640 media, supplemented with 5% fetal calf serum, penicillin/streptomycin and 2 mM L-glutamine. […] The number of cells on the plate are quantitated using a protein dye-binding assay (Monks et al., 1991). […] The optical densities are read from an automatic spectrophotometric plate reader (Dynatech) directly to a main frame computer (VAX 8600). […]
Background optical density measurements (complete media-cells, and complete media+drug-cells) are automatically subtracted from the appropriate control and test wells. Mean values and standard errors are determined from duplicate wells. […]

HTB 16 = assay: Antiproliferative activity in human tumor cell line HTB 16; settings: ovarian tumor line; PROTOCOL 1 and PROTOCOL 2
Protocol: as §1, §2, §3, §5, §6, §7, §8, §9, §10, §11, §12, §13, §14, §15, §16

SW620 = assay: Antiproliferative activity in human colon tumor cell line SW620; settings: PROTOCOL 1 and PROTOCOL 2
Protocol: as §1, §2, §3, §4, §5, §6, §7, §8, §9, §10, §11, §12, §13, §14, §15, §16

A2780S = assay: Antiproliferative activity in human ovarian tumor cell line A2780S; settings: PROTOCOL 1 and PROTOCOL 2
Protocol: as §1, §2, §3, §5, §6, §7, §8, §9, §10, §11, §12, §13, §14, §15, §16

`C=CCN(CC=C)CC(=O)Nc1ccc2c(c1O)C(=O)C1=C(O)[C@]3(O)C(=O)C(C(N)=O)=C(O)[C@@H](N(C)C)C3CC1C2.Cl.Cl` (stereo partly drawn) [Example 2] was tested, and the “MIP IC50” value (MIP) was 4.0 µg/mL, the “A2780/DDP IC50” value (A2780/DDP) was 4.0 µg/mL and the “inhibition of cell growth at the highest concentrations” value (Human Tumor Cell lines; FIG. 2, 6 human tumor cell lines, highest concentrations) was less than 100%. For the same molecule, the AVERAGE IC50 FOR TUMOR CELL LINES (Human Tumor Cell lines; average over the tested human tumor cell lines) was 2.75 µg/mL, the Dead floating cells (Human Tumor Cell lines; even at the highest concentration) was “not observed” and the “CACO2 IC50” value (CACO2) was 4.0 µg/mL. For the same molecule, the “HTB 16 IC50” value (HTB 16) was 1.5 µg/mL, the “SW620 IC50” value (SW620) was 1.5 µg/mL and the “A2780S IC50” value (A2780S) was 1.5 µg/mL.
